Where two headings read alike, the source gives them in different places.
Key:
GluR2 = molecular target: T1, GluR2 (Rattus norvegicus, UniProt P19491); experiment: Radioligand displacement ([3H]AMPA), Example 1; type: binding
T1 construct: expressed in transfected cells; host or cells: COS-7 or HEK-T/17
Description: (§1) Dysiherbaine (DH) was used as a template for generating novel KAR ligands. (See FIG. 1.) These included 8-deoxy and 9-deoxy analogs of neodysiherbaine (neoDH). (See FIG. 2.) The binding of these analogs to glutamate receptors was assessed by radioligand binding as follows. Membrane preparations from COS-7 or HEK-T/17 cells were isolated 2-3 days after transfection. Displacement assays were performed as described previously (Swanson et al., NEURON 1997; 19:913-26). Unlabeled marine toxin analogs were used to displace [^3H]kainate or [^3H]AMPA (PerkinElmer) from kainate and AMPA receptors, respectively. (See FIG. 2 and Table 1.)
(§2) Non-specific binding was defined in the presence of 1 mM glutamate. The effect of these analogs on electrophysiology was assessed as follows. HEK 293 cells were transfected with receptor cDNAs in combination with eGFP cDNA. Patch-clamp recordings from transfected cells were made 24-72 hours later using a fast application system described previously (Swanson et al., NEURON 1997; 19:913-26). (See FIG. 3.)
(§3) Additional epimer analogs were generated. These included 4-epi-neodysiherbaine, 8-epi-neodysiherbaine, 9-epi-neodysiherbaine, and 8,9-epi-neodysiherbaine. (See FIG. 4.) The binding of these analogs to glutamate receptors was assessed by radioligand binding as described above. (See FIG. 4 and Table 2.)

GluR1 = molecular target: T2, GluR1 (Rattus norvegicus, UniProt P19490); experiment: Radioligand displacement ([3H]AMPA), Example 1; type: binding
T2 construct: expressed in transfected cells; host or cells: COS-7 or HEK-T/17
Description: as §1, §2, §3

[1] = tested on: other KAR and AMPAR subunits; experiment: Radioligand binding, remaining subunits stated collectively, Example 2
Description: (§4) Radioligand binding. Membrane preparations from HEK-293-T/17 cells were prepared and used in radioligand binding assays as described previously (Sanders et al., 2005). Unlabeled analogs were used to displace [3H]kainate (10-20 nM, PerkinElmer Life and Analytical Sciences, Boston, Mass.) or [3H]AMPA (20 nM, PerkinElmer Life and Analytical Sciences, Boston, Mass.) from KARs and AMPARs, respectively. Nonspecific binding was determined in the presence of 1 mM glutamate. After 1 hour incubation at 4° C., samples were harvested by rapid filtration onto Whatman GF/C membranes. Upon addition of scintillation fluid, membranes were incubated for 1 hour at room temperature. A Beckman LS5000TD scintillation counter was used for quantification (Beckman Coulter Inc., Fullerton, Calif.). Data were plotted and fit with a one-site competition curve with fixed minima and maxima using Prism 4 (GraphPad Software, Inc). Ki's were calculated with the Cheng-Prusoff equation using the determined IC5o values and the radioligand Kd. Data were plotted and fit with a one-site competition curve with fixed minima (0) and maxima (100) (Prism4, GraphPad Software, Inc.). Correlation analysis was performed with these binding data and the seizure activity of each analog, represented as ED50 values.
(§5) The pharmacological profiles of the Group I analogs, 8-deoxy-neoDH and 9-deoxyneoDH, were analyzed initially in radioligand binding experiments with expressed recombinant AMPA and kainate receptor subunits. Displacement of [3H]kainate from cell membranes with a range of analog concentrations yielded IC50 values that were then used to calculate Ki values for each analog/receptor combination. Both Group 1 analogs retained high affinity only for GluR5-2a KAR subunits (FIG. 8A). […] Weak binding to other KAR and AMPAR subunits was observed, with all Ki values estimated at >10 μM (n=3-5; Table 3, FIG. 8A).
(§6) For comparison, the Ki values for neoDH and MSVIII-19 are included in the table (Sanders et al., 2005). Removal of the C9 hydroxyl eliminated binding to all receptor subunits (Ki values estimated at >100 μM), with the exception of GluR5-2a KARs.

GluR5 [2] = molecular target: T3, GluR5 (Rattus norvegicus, UniProt P22756); experiment: Radioligand displacement ([3H]kainate), Example 1; type: binding
T3 construct: expressed in transfected cells; HEK 293 (patch clamp)
Description: as §1, §2, §3

GluR7 = molecular target: T4, GluR7 (Rattus norvegicus, UniProt P42264); experiment: Radioligand displacement ([3H]kainate), Example 1; type: binding
T4 construct: expressed in transfected cells; host or cells: COS-7 or HEK-T/17
Description: as §1, §2, §3

[3] = molecular target: T5, other KAR and AMPAR subunits; experiment: Radioligand binding, remaining subunits stated collectively, Example 2; conditions: estimated; read-out: Ki values at other KAR and AMPAR subunits (all subunits except those named)
T5 construct: Ki values at other KAR and AMPAR subunits (all subunits except those named); other: estimated
Description: as §4, §5, §6

GluR5 [4] = molecular target: T3, GluR5; experiment: Patch-clamp recordings from transfected HEK 293 cells, Example 1; type: cell-based; conditions: Example 1, FIG. 3 and 5
Description: as §2
The effect of these analogs on electrophysiology also was assessed as described above. […] The results further indicate that the C8 and C9 substituents are necessary for binding to all AMPA and KAR subunits except for GluR5 subunits. The C9 polar group must be present and in the correct spatial orientation for high-affinity GluR5 subunit binding. Inter-domain contacts mediated by residue 721S are critical determinants of binding affinity. The epimer analog 9-deoxy-neoDH mimics the binding affinity of the di-deoxy analog MSVIII-19, but acts as an agonist rather than an antagonist.

mice = experiment: Seizure (convulsant) activity after i.c.v. injection; type: in vivo
[5] = Tables 1-2, read-out: GluR2 binding affinity (displacement of [3H]AMPA)
[6] = Tables 1-2, read-out: GluR1 binding affinity (displacement of [3H]AMPA)
[7] = Tables 1-2, membranes of transfected COS-7 or HEK-T/17 cells, read-out: GluR5 binding affinity (displacement of [3H]kainate)
[8] = Tables 1-2, read-out: GluR7 binding affinity (displacement of [3H]kainate)

T3 sequence (P22756 with tags, fused parts or gaps isoform P22756-2): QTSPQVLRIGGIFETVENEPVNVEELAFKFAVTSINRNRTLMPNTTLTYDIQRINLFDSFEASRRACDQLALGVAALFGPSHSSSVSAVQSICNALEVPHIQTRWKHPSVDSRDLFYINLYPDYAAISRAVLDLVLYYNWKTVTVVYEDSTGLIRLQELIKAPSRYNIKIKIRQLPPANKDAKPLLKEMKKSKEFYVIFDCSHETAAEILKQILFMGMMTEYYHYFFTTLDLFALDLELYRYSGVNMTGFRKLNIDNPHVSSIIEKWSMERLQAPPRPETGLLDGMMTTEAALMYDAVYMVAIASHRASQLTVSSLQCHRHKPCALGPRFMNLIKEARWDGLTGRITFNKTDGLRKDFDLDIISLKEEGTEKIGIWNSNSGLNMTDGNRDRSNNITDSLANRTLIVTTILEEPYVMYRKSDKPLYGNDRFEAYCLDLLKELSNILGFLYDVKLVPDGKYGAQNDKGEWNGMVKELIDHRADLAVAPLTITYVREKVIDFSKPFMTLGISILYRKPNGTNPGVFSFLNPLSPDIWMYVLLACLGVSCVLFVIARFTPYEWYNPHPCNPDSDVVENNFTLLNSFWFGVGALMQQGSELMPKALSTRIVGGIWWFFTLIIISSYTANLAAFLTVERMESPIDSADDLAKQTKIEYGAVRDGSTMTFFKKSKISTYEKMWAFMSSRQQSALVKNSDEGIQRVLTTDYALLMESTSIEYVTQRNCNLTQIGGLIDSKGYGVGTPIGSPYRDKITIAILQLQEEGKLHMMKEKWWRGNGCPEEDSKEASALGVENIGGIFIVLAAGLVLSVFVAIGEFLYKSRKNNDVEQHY
T1 sequence (P19491 22-883 isoform P19491-2 limits assumed): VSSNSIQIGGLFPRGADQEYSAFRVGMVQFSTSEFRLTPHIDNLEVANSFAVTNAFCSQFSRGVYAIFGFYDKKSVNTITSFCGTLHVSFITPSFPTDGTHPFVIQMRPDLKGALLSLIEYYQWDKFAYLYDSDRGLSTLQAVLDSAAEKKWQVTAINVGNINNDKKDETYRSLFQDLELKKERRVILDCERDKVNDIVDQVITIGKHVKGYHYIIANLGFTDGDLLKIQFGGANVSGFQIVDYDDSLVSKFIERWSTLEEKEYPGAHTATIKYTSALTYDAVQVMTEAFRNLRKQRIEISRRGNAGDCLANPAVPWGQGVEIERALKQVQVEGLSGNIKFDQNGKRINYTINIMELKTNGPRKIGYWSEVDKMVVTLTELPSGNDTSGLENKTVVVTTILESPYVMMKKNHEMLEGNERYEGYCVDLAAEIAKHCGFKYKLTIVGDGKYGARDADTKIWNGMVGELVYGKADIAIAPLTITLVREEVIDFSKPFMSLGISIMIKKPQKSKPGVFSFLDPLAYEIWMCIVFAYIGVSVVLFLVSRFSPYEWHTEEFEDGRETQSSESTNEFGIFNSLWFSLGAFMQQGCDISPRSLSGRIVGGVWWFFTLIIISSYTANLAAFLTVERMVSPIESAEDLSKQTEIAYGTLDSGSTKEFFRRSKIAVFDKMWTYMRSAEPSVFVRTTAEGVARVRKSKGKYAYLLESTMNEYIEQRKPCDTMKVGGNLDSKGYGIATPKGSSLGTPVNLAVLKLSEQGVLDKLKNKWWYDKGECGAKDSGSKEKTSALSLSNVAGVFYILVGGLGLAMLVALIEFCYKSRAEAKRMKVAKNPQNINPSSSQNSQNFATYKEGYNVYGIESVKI
T2 sequence (P19490 19-907 isoform P19490-2 limits assumed): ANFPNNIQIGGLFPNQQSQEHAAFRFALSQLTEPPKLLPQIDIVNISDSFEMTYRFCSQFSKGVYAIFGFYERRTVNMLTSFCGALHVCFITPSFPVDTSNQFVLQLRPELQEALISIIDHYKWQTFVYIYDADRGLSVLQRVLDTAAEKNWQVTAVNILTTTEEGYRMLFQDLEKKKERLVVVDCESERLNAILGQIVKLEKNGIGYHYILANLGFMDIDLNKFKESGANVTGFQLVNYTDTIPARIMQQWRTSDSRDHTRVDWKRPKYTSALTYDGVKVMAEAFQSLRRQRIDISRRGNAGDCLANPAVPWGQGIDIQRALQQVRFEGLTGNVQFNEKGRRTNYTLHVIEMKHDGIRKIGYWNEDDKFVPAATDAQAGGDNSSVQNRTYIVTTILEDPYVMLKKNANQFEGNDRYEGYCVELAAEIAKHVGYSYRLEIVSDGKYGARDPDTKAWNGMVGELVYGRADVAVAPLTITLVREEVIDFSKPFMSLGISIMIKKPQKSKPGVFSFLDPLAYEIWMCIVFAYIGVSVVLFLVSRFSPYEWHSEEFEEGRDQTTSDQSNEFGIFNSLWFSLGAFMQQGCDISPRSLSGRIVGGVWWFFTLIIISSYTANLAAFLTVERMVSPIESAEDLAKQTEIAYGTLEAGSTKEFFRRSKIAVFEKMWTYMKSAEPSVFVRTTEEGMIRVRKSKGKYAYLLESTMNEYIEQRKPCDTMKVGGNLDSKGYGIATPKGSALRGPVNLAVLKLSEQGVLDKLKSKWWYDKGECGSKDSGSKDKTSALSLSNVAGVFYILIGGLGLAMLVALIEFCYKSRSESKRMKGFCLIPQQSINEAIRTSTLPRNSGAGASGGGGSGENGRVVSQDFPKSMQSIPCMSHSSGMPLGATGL
T4 sequence (P42264 32-919): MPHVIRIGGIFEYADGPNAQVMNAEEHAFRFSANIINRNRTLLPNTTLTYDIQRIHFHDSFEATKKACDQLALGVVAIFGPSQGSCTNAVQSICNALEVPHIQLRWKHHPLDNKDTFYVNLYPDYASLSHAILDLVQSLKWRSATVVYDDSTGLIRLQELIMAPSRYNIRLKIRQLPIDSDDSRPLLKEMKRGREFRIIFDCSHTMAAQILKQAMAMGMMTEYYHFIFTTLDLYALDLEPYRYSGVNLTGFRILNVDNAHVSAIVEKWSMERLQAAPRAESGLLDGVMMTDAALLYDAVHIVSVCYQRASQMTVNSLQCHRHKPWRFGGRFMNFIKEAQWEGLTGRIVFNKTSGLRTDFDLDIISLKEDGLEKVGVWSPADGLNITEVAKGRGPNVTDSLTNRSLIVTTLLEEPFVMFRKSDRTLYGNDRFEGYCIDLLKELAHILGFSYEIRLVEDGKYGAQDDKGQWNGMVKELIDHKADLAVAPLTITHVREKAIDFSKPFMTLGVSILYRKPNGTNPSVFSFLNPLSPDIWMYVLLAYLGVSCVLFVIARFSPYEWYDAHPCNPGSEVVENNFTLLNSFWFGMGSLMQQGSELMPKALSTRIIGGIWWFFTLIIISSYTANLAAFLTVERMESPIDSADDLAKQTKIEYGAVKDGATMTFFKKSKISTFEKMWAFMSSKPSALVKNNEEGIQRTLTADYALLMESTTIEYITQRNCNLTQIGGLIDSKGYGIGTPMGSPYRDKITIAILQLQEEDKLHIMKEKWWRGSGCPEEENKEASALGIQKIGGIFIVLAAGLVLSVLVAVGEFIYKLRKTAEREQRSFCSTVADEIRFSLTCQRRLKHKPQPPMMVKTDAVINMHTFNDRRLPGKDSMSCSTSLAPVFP

SMILES | Ki (GluR2; [5]) [µM] | Ki (GluR1; [6]) [µM] | binding to other KA and AMPAR subunits [1] | Ki (GluR5 [2]; [7]) [µM] | Ki (GluR7; [8]) [µM] | Ki [3] [µM] | agonist or antagonist at GluR5 (electrophysiology) (GluR5 [4]) | further results
NC(CC1(C(=O)O)CC2OCC(O)C(O)C2O1)C(=O)O (stereo not drawn) [9-epi-neoDH, 9-epi-neodysiherbaine] | > 100 | > 100 | inactive at other subunits | 0.296 | > 100 | – | – | –
N[C@@H](C[C@@]1(C(=O)O)CC2OCC(O)C(O)C2O1)C(=O)O (single isomer, unassigned) [2,4-epi-neoDH, 2,4-epi-neodysiherbaine] | – | – | – | – | – | > 100 | – | –
N[C@@H](C[C@]1(C(=O)O)C[C@H]2OC[C@@H](O)C[C@H]2O1)C(=O)O [8-deoxy-neoDH] | – | – | – | – | – | > 10 | GluR5 agonists | Ki (GluR2): > 100 µM; Ki (GluR1): > 100 µM; Ki (GluR5 [2]): 0.0011 µM; Ki (GluR7): 21 µM
N[C@@H](C[C@@]1(C(=O)O)CC2OCC(O)C(O)C2O1)C(=O)O (single isomer, unassigned) [4-epi-neoDH, 4-epi-neodysiherbaine] | – | – | weakly displaced radioligand | – | – | – | GluR5/GluR6 antagonist | ED50, fold lower than that of 2,4-epi-neoDH (mice; i.c.v. injection, mice): > 6 fold
NC(CC1(C(=O)O)CC2OCC(O)C(O)C2O1)C(=O)O (stereo not drawn) [8,9-epi-neoDH, 8,9-epi-neodysiherbaine] | > 100 | > 100 | effectively eliminated affinity for all receptor subunits | – | > 100 | – | GluR5 antagonist | convulsive behavior (mice; high doses): fails to elicit convulsive behavior even at high doses; Ki (GluR5 [2]; Table 2, read-out: GluR5 binding affinity (displacement of [3H]kainate)): 48 µM
N[C@@H](C[C@]1(C(=O)O)C[C@H]2OCC[C@@H](O)[C@H]2O1)C(=O)O [9-deoxy-neoDH] | > 100 | > 100 | – | 0.168 | > 100 | > 100 | GluR5 agonists | –
NC(CC1(C(=O)O)CC2OCC(O)C(O)C2O1)C(=O)O (stereo not drawn) [8-epi-neoDH, 8-epi-neodysiherbaine] | 23 | 17 | – | 0.034 | – | – | GluR5 agonist | –
